Marks after values point to notes of the source that are not given here.
Legend:
Exposure of HBr1 to AAC = assay type: physicochemical; conditions: AAC for two days
Source text: HBr1 was unstable upon exposure to AAC for two days and became deliquescent.

[1] = Salt screen using solutions in ethanol, appearance/colour on storage; conditions: light-protected; for Result at 6 days: solvent removed, stored at RT under Ar, appearance after addition of EtOH; for Results at 18 h: ethanol solution, storage overnight at RT, Ar
[2] = cited from earlier work
[3] = protected from light, over 14 days; cited from earlier work
[4] = Analytical characterization of dosing solutions used in the PK study; assay type: physicochemical; conditions: after 2 hours on the bench at room temperature, PBS, depending on the concentration
Description: (§1) The study was conducted in male/female CD rats. Test articles were formulated fresh in PBS. Psilocin and Psilocybin were administered IV and PO. Plasma samples were analyzed for psilocin and psilocybin (group 2).
(§2) FIGS. 2A-2C show PK characteristics of psilocin and psilocybin after IV dosing. FIGS. 3A-3B show PK characteristics of psilocin and psilocybin after PO dosing. FIGS. 4A-4B show psilocin and psilocybin after IV and PO dose.
After IV administration, psilocybin is detectable in plasma for 15 minutes. PO administration of psilocin and psilocybin results in similar PK values, including tmax, t1/2, AUC, and bioavailability. […] Low stability of psilocin in aqueous solutions could be a contributing factor to observed differences. […] Stabilization of psilocin provides viable, stable formulations and lower variability of dosing solutions, resulting in a better PK, such as compared to psilocybin.

[5] = HPLC solution stability and stress conditions, free base versus tartrate salt
[6] = PK evaluation of psilocin and psilocybin after IV and PO administration in rats; assay type: in vivo, CD rats; conditions: for PK values, including Cmax and AUC and Cl: IV administration; for PK values, including Cmax and AUC and Cl / PK values, including tmax, t1/2, AUC, and bioavailability: psilocin versus psilocybin; for PK values, including tmax, t1/2, AUC, and bioavailability: PO administration
Description: PK Evaluation of Psilocin and Psilocybin after IV and PO Administration in Rats
as §1, §2

[7] = Dynamic vapor sorption/desorption (DVS) analysis; assay type: physicochemical
Description: The weight versus time and percent weight change versus percent relative humidity (RH) curves from the DVS analysis of psilocin tartrate lot 16782-15C is presented in FIGS. 13 and 14, respectively.
DVS analysis was carried out using a TA Instruments Q5000 Dynamic Vapor Sorption analyzer. The instrument was calibrated with standard weights and a sodium bromide standard for humidity. Approximately 12 mg of the powder sample was loaded into a metal-coated quartz pan for analysis. The sample was analyzed at 25° C. after being equilibrated to […] in 10% RH steps from 5 to 95% RH (adsorption cycle) and from 95 to 5% RH (desorption cycle). The movement from one step to the next occurred either after satisfying the equilibrium criterion of 0.01% weight change in 5 minutes or, if the equilibrium criterion was not met, after 90 minutes. The percent weight change values were calculated using Microsoft Excel® 2016.

[8] = Analytical characterization of a psilocin tartrate sample (solid state); assay type: physicochemical; conditions: OM, XRPD, DSC, TGA, DVS
Source text: One sample of psilocin tartrate (lot 16782-15C) was submitted for optical microscopy (OM), X-ray powder diffraction (XRPD), differential scanning calorimetry (DSC), thermogravimetric analysis (TGA), dynamic vapor sorption/desorption (DVS), and ^1H NMR spectroscopy.

[9] = after IV administration of psilocybin; cited from earlier work
intestinal epithelia = conditions: cited from earlier work

## Br.CN(C)CCc1c[nH]c2cccc(O)c12 [HBr1]
Exposure of HBr1 to AAC
  stability upon exposure to AAC: unstable

## Adipic
[1]
  Result at 6 days: ↑C

## Mandelic
[1]
  Results at 18 h: 0

## Oxalic
[1]
  Results at 18 h: 0

## Fumaric
[1]
  Results at 18 h: F ^c

## CN(C)CCc1c[nH]c2cccc(O)c12 [psilocin, 4-hydroxy-N,N-dimethyltryptamine]
[2]; biological samples with addition of 25 mM ascorbic acid
  psilocin lost: greater than 5%
[3]
  peak loss: 50%
[4]
  degradation of dosing solutions: 30%-70%
[5]; FIG. 20
  stability under a variety of stress conditions: limited stability
[6]
  PK values, including Cmax and AUC and Cl: almost identical
  PK values, including tmax, t1/2, AUC, and bioavailability: similar
[6]; both sexes, CD, rat, PO administration of psilocin, plasma psilocin, read-out: Measured Cmax
  Cmax: 153 ng/mL

## L-Tartaric
[1]
  Results at 18 h: 0 ^d

## psilocin tartrate
[5]; HPLC, FIG. 21
  stability in solution compared to the free base: improved stability
[7]
  hygroscopicity: moderately hygroscopic
[7]; 25° C.
  wt. loss upon equilibration at 5% RH: 0.12% wt. loss upon equilibration at 5% RH
[7]; 25° C., adsorption cycle
  wt. gain from 5 to 95% RH: 4.64% wt. gain from 5 to 95% RH
[7]; 25° C., desorption cycle
  wt. loss from 95 to 5% RH: 4.67% wt. loss from 95 to 5% RH
[8]
  solid-state stability: stable crystalline solid

## O=C(O)c1ccccc1O [Salicylic]
[1]
  Results at 18 h: 0
  Result at 6 days: ↑C

## Maleic
[1]
  Results at 18 h: 0
  Result at 6 days: ↑C

## O=C(O)CC(=O)O [Malonic]
[1]
  Results at 18 h: F ^c
  Result at 6 days: ↑C

## CN(C)CCc1c[nH]c2cccc(O[C@@H]3O[C@H](C(=O)O)[C@@H](O)[C@H](O)[C@H]3O)c12 [psilocin glucuronide]
[2]; one week, whole blood at room temperature and deep frozen samples
  short-term stability compared with psilocin: better than that of psilocin
[2]; six months, deep frozen serum and urine samples
  long-term stability compared with psilocin: greater long-term stability

## CN(C)CCc1c[nH]c2cccc(OP(=O)(O)O)c12 [psilocybin, 4-phosphoryloxy-N, N-dimethyltryptamine, reference compound]
[9]
  inter-individual variability of psilocin concentrations: over 3 fold
[6]
  PK values, including Cmax and AUC and Cl: almost identical
  PK values, including tmax, t1/2, AUC, and bioavailability: similar
[6]; after IV administration
  time psilocybin is detectable in plasma: 15 min
Intestinal epithelia
  permeability: not permeable

## O=C(O)CCC(=O)O [Succinic]
[1]
  Results at 18 h: F ^c
  Result at 6 days: ↑C

## O=C1O[C@H]([C@@H](O)CO)C(O)=C1O [Ascorbic]
[1]
  Results at 18 h: 0
  Result at 6 days: C + solid
